Test [1] has as its system Septoria tritici (Qo-inhibitor sensitive, wild-type). Briefly: Microtiter test, Septoria tritici Qo-inhibitor sensitive wild-type (Use Example 1). It counts as cell-based. Conditions: turbidity at 620 nm, read-out: Sensitive Septoria tritici isolate (wild type) (S-IC50). The procedure:
(§1) The active substances were formulated separately as a stock solution in dimethyl sulfoxide (DMSO) at a concentration of 10 000 ppm.
(§2) Activity against the Septoria blotch pathogen caused by Septoria tritici in the microtiter test
(§3) Fungal strains used: • a) Septoria tritici (Qo-inhibitor sensitive, wild-type) • b) Septoria tritici (Qo-inhibitor-resistant, G143A mutant)
(§4) 100 ml 2% Malt extract in water at pH6.8 were inoculated with microspores from 2 week old cultures grown on 2% malt extract+2% agar in Petri dishes and incubated for 3 days on a rotary shaker at 24° C. und 150 rpm. The culture was harvested, glycerol was added (15% (v/v) and kept frozen at −20° C. in aliquots of 1 ml.
(§5) 1 ml stock suspension was thawed and suspended into 800 ml of 2% malt extract in water at pH 6.8. Compounds were diluted from stock solution in (dimethylsulfoxide) DMSO in 10 steps. The compound solutions were diluted 1/5 with sterile deionized water before use. 5 μl of the compound solutions were transferred into empty microplates. The plates were then filled with 195 μl of the microspore suspension of each strain.
(§6) The antifungal activity was determined by measuring the turbidity of a culture in 96-well microplates in the presence of test compounds. Fungal growth was measured by recording the optical density at 620 nm every 15 h for 150 h. The relative antifungal activity was calculated by comparison of the effect of the test compounds with the effect of a DMSO control and a standard fungicide.
(§7) IC50-values (concentration of test compound resulting in 50% inhibition of fungal growth) were calculated from the resulting dose-response for each compound and strain. The initial concentration of the test compounds and the 10 steps of dilution (1:4 each) allowed IC50-values from 0.001 to 100 μmol/l (μM) to be assessed.

In test [2] the test system is Septoria tritici (Qo-inhibitor-resistant, G143A mutant). Briefly: Microtiter test, Septoria tritici Qo-inhibitor-resistant G143A mutant (Use Example 1). In kind it is cell-based. Conditions: for IC50: read-out: Resistant Septoria tritici isolate (G143A mutation) (R-IC50); for Resistance factor RF = R-IC50/S-IC50: ratio of IC50 for G143A resistant isolate to IC50 for wild-type sensitive isolate. The procedure: as §1, §2, §3, §4, §5, §6, §7

Setting [3] is: microtiter test, Qo-inhibitor-resistant G143A mutant, turbidity at 620 nm.

Molecules are shown by their SMILES. Read-outs that look alike come from different tables or passages of the source.

`C=C(Cl)CON=C(C)c1cc(C)c(OCC=C(C)C(=NOC)C(=O)NC)cc1C` [Compound I-84]: the 50% inhibitory concentration (IC50) in test [1] is 0.5 µM; in test [2] (setting [3]), 16.1 µM. In addition, in test [2], the “Resistance factor RF = R-IC50/S-IC50” value was 33.
On to `C=C(Cl)CON=C(C)c1ccc(OCC=C(C)C(=NOC)C(=O)NC)c(C)c1` [Compound I-85], for which the IC50 in test [1] turned out to be 0.8 µM; in test [2] (setting [3]), 22 µM. For the same compound, the “Resistance factor RF = R-IC50/S-IC50” value in test [2] is 29.
Turning to `C/C(=N\OC/C=C/Cl)c1ccc(OCc2ccccc2-n2nnn(C)c2=O)c(C)c1` [Compound I-217], the IC50 in test [1] came to 6.3 µM; in test [2] (setting [3]) it was 63 µM. The “Resistance factor RF = R-IC50/S-IC50” value in test [2] was found to be 10.
`C=CCON=C(C)c1ccc(OCC=C(C)C(=NOC)C(=O)NC)c(C)c1` [Compound I-83]: the IC50 in test [1] is 1.6 µM; in test [2] (setting [3]), 7.6 µM. Further, in test [2], the “Resistance factor RF = R-IC50/S-IC50” value came to 4.6.
The corresponding values for `CON=C(C(=O)OC)C(C)=CCOc1ncn(-c2cc(C)ccc2C)n1` [Compound I-324] are 1.9 µM, 38 µM and 20.0.
On to `Cc1ccc(-n2cc(C)c(OCc3ccccc3-n3nnn(C)c3=O)n2)cc1C` [Compound I-262], for which the IC50 in test [1] worked out at 1 µM; in test [2] (setting [3]), 1.6 µM. The “Resistance factor RF = R-IC50/S-IC50” value in test [2] came out at 1.6.
`Cc1ccc(-n2cc(C)c(OCc3ccccc3-n3nnn(C)c3=O)n2)c(C)c1` [Compound I-265]: the IC50 in test [1] was 3.8 µM; in test [2] (setting [3]), 4 µM. Besides, the “Resistance factor RF = R-IC50/S-IC50” value in test [2] worked out at 1.1.
For the compound `Cc1cc(-c2cnoc2)c(C)cc1OCc1ccccc1-n1nnn(C)c1=O` [Compound I-271], the IC50 is 1.9 µM in test [1] and 7 µM in test [2] (setting [3]). The “Resistance factor RF = R-IC50/S-IC50” value in test [2] was determined as 3.9.
The corresponding values for `C=CCON=C(C)c1cc(C)c(OCC=C(C)C(=NOC)C(=O)NC)cc1C` [Compound I-82] are 1.1 µM, 6.8 µM and 6.
As to `Cn1nnn(-c2ccccc2COc2ccn(-c3cccc(C(F)(F)F)c3)n2)c1=O` [Compound I-247], the IC50 in test [1] turned out to be 5 µM; in test [2] (setting [3]), 9 µM. Moreover, in test [2], the “Resistance factor RF = R-IC50/S-IC50” value is reported as 1.9.
Taken in the same sequence, the figures for `CNC(=O)C(=NOC)C(C)=CCOc1ncn(-c2ccc(Cl)cc2Cl)n1` [Compound I-305] were 9.3 µM, 32 µM and 3.4.
The corresponding values for `CCC/C(=N\OC)c1cc(C)c(OCc2ccccc2-n2nnn(C)c2=O)cc1C` [Compound I-234] are 2.4 µM, 4 µM and 1.7.
For the compound `Cn1nnn(-c2ccccc2COc2nn(-c3ccc(Cl)cc3)cc2Cl)c1=O` [Compound I-243], the IC50 in test [1] amounted to 4.1 µM; in test [2] (setting [3]), 15 µM. For the same compound, the “Resistance factor RF = R-IC50/S-IC50” value in test [2] is 3.6.
The corresponding values for `CO/N=C(\C)c1ccc(OCc2ccccc2-n2nnn(C)c2=O)c(C)c1` [Compound I-233] are 0.24 µM, 2.7 µM and 12.
The corresponding values for `CON=C(C(=O)OC)C(C)=CCOc1ncn(-c2ccc(C)c(Cl)c2)n1` [Compound I-310] are 0.39 µM, 11 µM and 28.2.
As for `CCc1ccc(-n2cnc(OCC=C(C)C(=NOC)C(=O)OC)n2)cc1` [Compound I-304], the IC50 in test [1] came to 0.53 µM; in test [2] (setting [3]), 9.1 µM. Moreover, in test [2], the “Resistance factor RF = R-IC50/S-IC50” value was 17.2.
On to `CC(=NOCc1ccccc1-n1nnn(C)c1=O)c1cccc(-c2cnn(-c3ccccc3)c2)c1` [Compound I-213], for which the values for the IC50 in test [1] and in test [2] (setting [3]) were 0.076 µM and 0.057 µM, respectively. Moreover, in test [2], the “Resistance factor RF = R-IC50/S-IC50” value is 0.7.
Take `CCC/C(=N\OC)c1ccc(OCc2ccccc2-n2nnn(C)c2=O)c(C)c1` [Compound I-235]: the IC50 in test [1] was determined as 13 µM; in test [2] (setting [3]), 51 µM. Also, the “Resistance factor RF = R-IC50/S-IC50” value in test [2] was 4.
Turning to `CO/N=C(/C(=O)OC)c1ccccc1COc1ccccc1C` [Kresoximmethyl], the IC50 in test [1] (Zymoseptoria tritici) was 0.76 µM; in test [2] (Zymoseptoria tritici), more than 100 µM.
`CON=C(C(=O)OC)C(C)=CCOc1ncn(-c2cc(Cl)cc(Cl)c2)n1` [Compound I-331]: the results for the IC50 in test [1] and in test [2] (setting [3]) were 1.8 µM and 25 µM, respectively. For the same compound, in test [2], the “Resistance factor RF = R-IC50/S-IC50” value was found to be 13.9.
As to `CON=C(C(=O)OC)C(C)=CCOc1ncn(-c2ccc(C(F)(F)F)cc2Cl)n1` [Compound I-326], the IC50 in test [1] is 1.2 µM; in test [2] (setting [3]), 18 µM. Further, the “Resistance factor RF = R-IC50/S-IC50” value in test [2] was found to be 15.0.
For `CC(=NOCc1ccccc1-n1nnn(C)c1=O)C(=O)c1ccc(C)c(C)c1` [Compound I-274], the half-maximal inhibitory concentration (IC50) amounted to 9 µM in test [1] and 19 µM in test [2] (setting [3]). Besides, in test [2], the “Resistance factor RF = R-IC50/S-IC50” value was 2.0.
On to `C/C(=N\OC/C=C\Cl)c1cc(C)c(OCc2ccccc2-n2nnn(C)c2=O)cc1C` [Compound I-228], for which the figures for the IC50 in test [1] and in test [2] (setting [3]) were 3.4 µM and 10 µM, respectively. Further, in test [2], the “Resistance factor RF = R-IC50/S-IC50” value worked out at 3.0.
In the case of `CO/C=C(/C(=O)OC)c1ccccc1COc1cc(-c2ccc(Cl)cc2)nn1C` [Pyraoxystrobin, reference compound], the IC50 is 1.6 µM in test [1] and more than 100 µM in test [2] (setting [3]).
Regarding `CON=C(C(=O)OC)C(C)=CCOc1ncn(-c2ccccc2C)n1` [Compound I-319], the IC50 in test [1] was 17 µM. The “Resistance factor RF = R-IC50/S-IC50” value in test [2] amounted to 6.0.
As to `Cc1ncc(-c2cc(C)c(OCc3ccccc3-n3nnn(C)c3=O)cc2C)o1` [Compound I-270], the IC50 worked out at 6 µM in test [1] and 57 µM in test [2] (setting [3]). The “Resistance factor RF = R-IC50/S-IC50” value in test [2] came to 10.
The corresponding values for `CC=CCON=C(C)c1ccc(OCC=C(C)C(=NOC)C(=O)NC)c(C)c1` [Compound I-91] are 1.6 µM, 27 µM and 17.
With `CCON=C(c1ccc(OCc2ccccc2-n2nnn(C)c2=O)c(C)c1)C1CC1` [Compound I-236], the IC50 amounted to 6 µM in test [1] and 24 µM in test [2] (setting [3]). For the same compound, in test [2], the “Resistance factor RF = R-IC50/S-IC50” value came out at 4.
`C=CCO/N=C(\C)c1cc(C)c(OCc2ccccc2-n2nnn(C)c2=O)cc1C` [Compound I-224]: the IC50 stood at 1.7 µM in test [1] and 5.4 µM in test [2] (setting [3]). In test [2], the “Resistance factor RF = R-IC50/S-IC50” value was determined as 3.2.
As to `Cc1cc(-n2cccn2)ccc1OCc1ccccc1-n1nnn(C)c1=O` [Compound I-212], the values for the half-maximal inhibitory concentration (IC50) in test [1] and in test [2] (setting [3]) were 1.4 µM and 8.3 µM, respectively. Besides, in test [2], the “Resistance factor RF = R-IC50/S-IC50” value was 6.
As to `CON=C(C(=O)OC)C(C)=CCOc1ncn(-c2ccc(Cl)cc2Cl)n1` [Compound I-303], the IC50 in test [1] was determined as 0.27 µM; in test [2] (setting [3]), 4.6 µM. Besides, the “Resistance factor RF = R-IC50/S-IC50” value in test [2] is recorded as 17.0.
As for `CON=C(C(=O)OC)C(C)=CCOc1ncn(-c2ccc(Cl)c(Cl)c2)n1` [Compound I-291], the figures for the IC50 in test [1] and in test [2] (setting [3]) were 1 µM and 18 µM, respectively. The “Resistance factor RF = R-IC50/S-IC50” value in test [2] is given as 18.0.
Taken in the same sequence, the figures for `CCC(=NOC)c1ccc(OCc2ccccc2-n2nnn(CC)c2=O)c(C)c1` [Compound I-256] were 21 µM, 24 µM and 1.1.
Taken in the same sequence, the figures for `Cc1ccc(-n2cc(C)c(OCc3ccccc3-n3nnn(C)c3=O)n2)cc1` [Compound I-260] were 2.3 µM, 3.3 µM and 1.4.
As for `C=CCON=C(C)c1ccc(OCC=C(C)C(=NOC)C(=O)OC)c(C)c1` [Compound I-95], the IC50 in test [1] came out at 2.2 µM; in test [2] (setting [3]), 29 µM. For the same compound, in test [2], the “Resistance factor RF = R-IC50/S-IC50” value was determined as 14.
With `CCn1nnn(-c2ccccc2COc2cc(C)c(C(C)=NOC)cc2C)c1=O` [Compound I-257], the IC50 in test [1] came out at 15 µM; in test [2] (setting [3]), 67 µM. In test [2], the “Resistance factor RF = R-IC50/S-IC50” value was 4.5.
In the case of `C/C=C/CO/N=C(\C)c1cc(C)c(OCc2ccccc2-n2nnn(C)c2=O)cc1C` [Compound I-225], the IC50 in test [1] worked out at 3.4 µM; in test [2] (setting [3]), 72 µM. For the same compound, in test [2], the “Resistance factor RF = R-IC50/S-IC50” value is reported as 21.
For the compound `CO/C=C(/C(=O)OC)c1ccccc1CO/N=C(C)/C=C/c1ccc(Cl)cc1` [Enestroburin, reference compound], the results for the IC50 in test [1] and in test [2] (setting [3]) were 4.5 µM and more than 100 µM, respectively.
For the compound `CNC(=O)C(=NOC)C(C)=CCOc1ncn(-c2ccc(Cl)cc2)n1` [Compound I-288], the IC50 was 3.5 µM in test [1] and 28 µM in test [2] (setting [3]). For the same compound, in test [2], the “Resistance factor RF = R-IC50/S-IC50” value came to 8.0.
